The values below are quoted from earlier work in patent US20250302824A1, “IN SITU READY-TO-USE INJECTION FORMULATIONS OF POSACONAZOLE FREE OF CYCLODEXTRIN AND ITS DERIVATIVES” (Hefei Cosource Pharmaceuticals Co., Ltd, priority 2024, published 2025).

Converted amounts (≈) assume the structure as drawn. Where two headings read alike, the source gives them in different places.

For orientation: solubility means the dissolved amount per volume that the medium holds. Turning to `CC[C@@H]([C@H](C)O)n1ncn(-c2ccc(N3CCN(c4ccc(OC[C@@H]5CO[C@@](Cn6cncn6)(c6ccc(F)cc6F)C5)cc4)CC3)cc2)c1=O` [Posaconazole], the solubility is 0.8 mg/mL (≈ 1140 µM) (at pH 1); “less than 1 μg/ml” (in neutral and alkaline solutions).
